The target in one test is T1, AMPKα1β1γ1 (Homo sapiens, UniProt Q13131+Q9Y478).
T1 construct: purchased Carna Biosciences 02-113
Put plainly: AMPKα1β1γ1 biochemical assay (LabChip EZ Reader mobility shift). As to conditions: EC50 of Table 1; activation, normalized to DMSO vehicle control; read-out: Human AMPK AMPKα1β1γ1 EC50. On the procedure: (§1) Compounds disclosed herein were evaluated for their ability to activate AMPKα1β1γ1 by measuring phosphorylation of a commercially available fluorescent AMPK substrate using the LabChip® EZ Reader microfluidic system that is based on a mobility shift principle in which unphosphorylated fluorescent substrates may be separated and distinguished from phosphorylated fluorescent substrates due to the difference in negative charge. Briefly, compounds were serial diluted 3-fold in 100% DMSO for an 11-point dose-response curve. A 20 nL aliquot of diluted compound was transferred into a 384-well plate using a liquid handler (Labcyte Inc., Echo 550). A pre-prepared solution (10 mM MgCl2, 0.01% Brij-35, 2 mM DTT, 0.05% BSA, 1 mM EGTA, and 50 mM HEPES pH 7.5) was combined with 0.83 nM AMPKα1β1γ1 (Carna Biosciences, 02-113). The enzyme solution (15 μL) was aliquoted into each well and the plate was incubated at 24° C. for 30 min. A second stock solution (10 mM MgCl2, 0.01% Brij-35, 2 mM DTT, 0.05% BSA, 1 mM EGTA, 800 μM ATP, and 50 mM HEPES pH 7.5) was combined with 6 μM fluorescent peptide substrate for AMPKal (Perkin Elmer, 760351). The kinase reaction was initiated by adding 5 μL of the second solution containing substrate and ATP to each well. The plate was incubated at 24° C. for 90 minutes and 75 μL of 0.5 M EDTA was added to terminate the reaction. The plates were analyzed using a LabChip® EZ Reader (Perkin Elmer, 122919) and the effective concentration to achieve 50% of the maximal activity (EC50) was calculated after normalizing to the DMSO vehicle control.

The target of the next test is T2, AMPKα1β2γ1 (Homo sapiens, UniProt O43741+Q13131).
T2 construct: purchased Carna Biosciences (printed only as 'Biosciences') 02-147
The test can be described thus: AMPKα1β2γ1 biochemical assay (LabChip EZ Reader mobility shift). As to conditions: second EC50 column of Table 1 (head repeats α1β1γ1; text says α1β2γ1 isoform); read-out: Human AMPK AMPKα1β1γ1 EC50. On the procedure: as §1
The same procedure above was also used to measure activation of the AMPKα1β2γ1 isoform, replacing AMPKα1β1γ1 with AMPKα1β2γ1 Biosciences 02-147).

T1 sequence (Q13131 whole entry): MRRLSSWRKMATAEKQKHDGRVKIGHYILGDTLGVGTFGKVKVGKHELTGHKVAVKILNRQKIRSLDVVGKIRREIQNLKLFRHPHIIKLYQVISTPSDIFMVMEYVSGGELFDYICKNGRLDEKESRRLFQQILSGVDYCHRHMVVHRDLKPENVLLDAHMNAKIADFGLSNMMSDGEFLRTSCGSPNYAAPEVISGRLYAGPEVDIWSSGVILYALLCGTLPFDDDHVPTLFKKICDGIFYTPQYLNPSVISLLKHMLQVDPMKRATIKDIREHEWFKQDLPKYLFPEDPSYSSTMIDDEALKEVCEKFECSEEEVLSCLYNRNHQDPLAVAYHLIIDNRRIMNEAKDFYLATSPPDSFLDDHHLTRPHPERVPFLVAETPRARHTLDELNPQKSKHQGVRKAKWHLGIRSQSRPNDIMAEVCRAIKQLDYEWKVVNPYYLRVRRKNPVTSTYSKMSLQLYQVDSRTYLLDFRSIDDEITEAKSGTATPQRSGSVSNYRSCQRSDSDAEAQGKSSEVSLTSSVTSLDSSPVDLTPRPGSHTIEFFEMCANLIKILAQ
T1 sequence (Q9Y478 whole entry): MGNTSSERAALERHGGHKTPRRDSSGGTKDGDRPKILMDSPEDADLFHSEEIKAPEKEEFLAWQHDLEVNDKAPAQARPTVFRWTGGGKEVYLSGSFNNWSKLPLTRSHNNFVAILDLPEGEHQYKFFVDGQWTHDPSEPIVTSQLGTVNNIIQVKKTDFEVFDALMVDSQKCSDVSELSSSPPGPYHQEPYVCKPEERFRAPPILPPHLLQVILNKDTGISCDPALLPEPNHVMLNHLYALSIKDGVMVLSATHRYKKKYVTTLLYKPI
T1 sequence (P54619 whole entry partner): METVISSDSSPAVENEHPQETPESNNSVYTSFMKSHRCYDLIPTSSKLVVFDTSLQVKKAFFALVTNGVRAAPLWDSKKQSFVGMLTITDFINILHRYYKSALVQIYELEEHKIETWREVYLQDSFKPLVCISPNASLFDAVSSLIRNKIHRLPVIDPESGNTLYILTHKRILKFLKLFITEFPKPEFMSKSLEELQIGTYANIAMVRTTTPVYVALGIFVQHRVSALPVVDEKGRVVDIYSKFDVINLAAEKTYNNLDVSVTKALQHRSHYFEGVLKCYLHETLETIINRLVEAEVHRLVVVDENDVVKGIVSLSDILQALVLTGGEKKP
T2 sequence (Q13131 whole entry): as the sequence (Q13131 whole entry) above
T2 sequence (O43741 whole entry): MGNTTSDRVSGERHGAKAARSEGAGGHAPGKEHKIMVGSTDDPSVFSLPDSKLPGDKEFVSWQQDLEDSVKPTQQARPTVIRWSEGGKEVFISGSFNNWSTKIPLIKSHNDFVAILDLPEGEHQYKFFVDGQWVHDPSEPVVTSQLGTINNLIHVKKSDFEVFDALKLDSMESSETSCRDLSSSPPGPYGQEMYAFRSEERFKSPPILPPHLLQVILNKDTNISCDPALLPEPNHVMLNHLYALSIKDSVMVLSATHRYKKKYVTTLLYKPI
T2 sequence (P54619 whole entry partner): as the sequence (P54619 whole entry partner) above

As for `COc1nc(N2CC3(CCC3)C2)ccc1-c1cc2c(C(=O)O)c[nH]c2cc1Cl` [Example 13, 6-chloro-5-(2-methoxy-6-(2-azaspiro[3.3]heptan-2-yl)pyridin-3-yl)-1H-indole-3-carboxylic acid], the results for the EC50 at AMPKα1β1γ1 and at AMPKα1β2γ1 were ≤ 50 nM and > 10000 nM, respectively.

Regarding `COc1nc(N2CC3CC3(C#N)C2)ccc1-c1cc2c(C(=O)O)c[nH]c2cc1Cl` (racemic) [Example 15, racemic-6-chloro-5-(6-(1-cyano-3-azabicyclo[3.1.0]hexan-3-yl)-2-methoxypyridin-3-yl)-1H-indole-3-carboxylic acid], the EC50 – broadly, the concentration needed to bring the measured effect to its halfway point – at AMPKα1β1γ1 is 50 to 100 nM; at AMPKα1β2γ1, > 10000 nM.

As to `COc1nc(N2C[C@@H]3COC[C@H]3C2)ccc1-c1cc2c(C(=O)O)c[nH]c2cc1Cl` [Example 33, 6-chloro-5-(2-methoxy-6-((3aR, 6aR)-tetrahydro-1H-furo[3,4-c]pyrrol-5(3H)-yl)pyridin-3-yl)-1H-indole-3-carboxylic acid], the EC50 on AMPKα1β1γ1 was ≤ 50 nM; at AMPKα1β2γ1, 250 to 10000 nM.

Turning to `COc1nc(N2CC3(CN(C(=O)OC(C)(C)C)C3)C2)ccc1-c1cc2c(C(=O)O)c[nH]c2cc1Cl` [Example 6, 5-(6-(6-(tert-butoxycarbonyl)-2,6-diazaspiro[3.3]heptan-2-yl)-2-methoxypyridin-3-yl)-6-chloro-1H-indole-3-carboxylic acid], the EC50 on AMPKα1β1γ1 is 50 to 100 nM; at AMPKα1β2γ1 it was > 10000 nM.

Turning to `COc1nc(N2CC3(CC3)C2)ccc1-c1cc2c(C(=O)O)c[nH]c2cc1Cl` [Example 12, 5-[6-(5-azaspiro[2.3]hexan-5-yl)-2-methoxy-3-pyridyl]-6-chloro-1H-indole-3-carboxylic acid], the EC50 at AMPKα1β1γ1 is ≤ 50 nM; on AMPKα1β2γ1, > 10000 nM.

Turning to `COc1nc(N2C[C@@H]3[C@@H](CO)[C@@H]3C2)ccc1-c1cc2c(C(=O)O)c[nH]c2cc1Cl` [Example 3, 6-chloro-5-(6-((trans)-6-(hydroxymethyl)-3-azabicyclo [3.1.0]hexan-3-yl)-2-methoxypyridin-3-yl)-1H-indole-3-carboxylic acid], the 50% effective concentration (EC50) at AMPKα1β1γ1 was ≤ 50 nM; at AMPKα1β2γ1 it was 250 to 10000 nM.

On to `COc1nc(N2CC3(CNC(=O)C3)C2)ccc1-c1cc2c(C(=O)O)c[nH]c2cc1Cl` [Example 19, 6-chloro-5-(2-methoxy-6-(7-oxo-2,6-diazaspiro[3.4]octan-2-yl)pyridin-3-yl)-1H-indole-3-carboxylic acid], for which the EC50 is ≤ 50 nM at AMPKα1β1γ1 and > 10000 nM at AMPKα1β2γ1.

On to `COc1nc(N2CC3(CNC3)C2)ccc1-c1cc2c(C(=O)O)c[nH]c2cc1Cl` [Example 11, 6-chloro-5-(2-methoxy-6-(2,6-diazaspiro[3.3]heptan-2-yl)pyridin-3-yl)-1H-indole-3-carboxylic acid], for which the EC50 on AMPKα1β1γ1 lay within 50 to 100 nM.

With `COc1nc(N2CC3COC(C3)C2)ccc1-c1cc2c(C(=O)O)c[nH]c2cc1Cl` (racemic) [Example 20, racemic-5-(6-(6-oxa-3-azabicyclo[3.2.1]octan-3-yl)-2-methoxypyridin-3-yl)-6-chloro-1H-indole-3-carboxylic acid], the EC50 on AMPKα1β1γ1 lay within 50 to 100 nM.

Consider `COc1nc(N2CCC3(CCOC3)C2)ccc1-c1cc2c(C(=O)O)c[nH]c2cc1Cl` (racemic) [Example 37, racemic-6-chloro-5-(2-methoxy-6-(2-oxa-7-azaspiro [4.4]nonan-7-yl)pyridin-3-yl)-1H-indole-3-carboxylic acid], for which the concentration giving a half-maximal response (EC50) on AMPKα1β1γ1 lay in the range of 100 to 250 nM.

Take `COc1nc(N2C[C@@H]3COC[C@H]3C2)ccc1-c1cc2c(C(=O)O)c[nH]c2cc1Cl` (racemic) [Example 32, racemic-6-chloro-5-(2-methoxy-6-((trans)tetrahydro-1H-furo[3,4-c]pyrrol-5(3H)-yl)pyridin-3-yl)-1H-indole-3-carboxylic acid]: on AMPKα1β1γ1, the EC50 is ≤ 50 nM.

As for `COc1nc(N2CC3CC(C2)O3)ccc1-c1cc2c(C(=O)O)c[nH]c2cc1Cl` [Example 39, 5-(6-(6-oxa-3-azabicyclo[3.1.1]heptan-3-yl)-2-methoxypyridin-3-yl)-6-chloro-1H-indole-3-carboxylic acid], the EC50 on AMPKα1β1γ1 was ≤ 50 nM.

Take `COc1nc(N2CC3CCC2CO3)ccc1-c1cc2c(C(=O)O)c[nH]c2cc1Cl` (racemic) [Example 30, racemic-5-(6-(2-oxa-5-azabicyclo[2.2.2]octan-5-yl)-2-methoxypyridin-3-yl)-6-chloro-1H-indole-3-carboxylic acid]: the EC50 at AMPKα1β1γ1 was in the range of 100 to 250 nM.

For the molecule `COc1nc(N2CC3CC2CO3)ccc1-c1cc2c(C(=O)O)c[nH]c2cc1Cl` (racemic) [Example 2, rac-5-(6-(2-oxa-5-azabicyclo[2.2.1]heptan-5-yl)-2-methoxypyridin-3-yl)-6-chloro-1H-indole-3-carboxylic acid], the EC50 at AMPKα1β1γ1 was in the range of 100 to 250 nM.

Turning to `COc1nc(N2CC3(COC3)C2)ccc1-c1cc2c(C(=O)O)c[nH]c2cc1F` [Example 40, 6-fluoro-5-(2-methoxy-6-[2-oxa-6-azaspiro[3.3]hentan-6-yl]pyridin-3-yl)-1H-indole-3-carboxylic Acid], the EC50 at AMPKα1β1γ1 fell in the range of 100 to 250 nM.

`COc1nc(N2CC3(CCS3(=O)=O)C2)ccc1-c1cc2c(C(=O)O)c[nH]c2cc1Cl` [Example 16, 6-chloro-5-(6-(1,1-dioxido-1-thia-6-azaspiro[3.3]heptan-6-yl)-2-methoxypyridin-3-yl)-1H-indole-3-carboxylic acid]: on AMPKα1β1γ1, the EC50 was ≤ 50 nM.

In the case of `COc1nc(N2CC3(CC(NC(=O)OC(C)(C)C)C3)C2)ccc1-c1cc2c(C(=O)O)c[nH]c2cc1Cl` [Example 7, 5-(6-(6-((tert-butoxycarbonyl)amino)-2-azaspiro[3.3]heptan-2-yl)-2-methoxypyridin-3-yl)-6-chloro-1H-indole-3-carboxylic acid], the EC50 at AMPKα1β1γ1 is ≤ 50 nM.

For `COc1nc(N2C[C@H]3C[C@H]3C2)ccc1-c1cc2c(C(=O)O)c[nH]c2cc1Cl` [Example 14, 5-(6-(3-azabicyclo[3.1.0]hexan-3-yl)-2-methoxypyridin-3-yl)-6-chloro-1H-indole-3-carboxylic acid], on AMPKα1β1γ1, the EC50 fell in the range of 50 to 100 nM.

Take `COc1nc(N2CC3CCC(C2)O3)ccc1-c1cc2c(C(=O)O)c[nH]c2cc1Cl` (racemic) [Example 29, racemic-5-(6-(8-oxa-3-azabicyclo[3.2.1]octan-3-yl)-2-methoxypyridin-3-yl)-6-chloro-1H-indole-3-carboxylic acid]: on AMPKα1β1γ1, the EC50 was 100 to 250 nM.

Consider `COc1nc(N2CC3(CCOCC3)C2)ccc1-c1cc2c(C(=O)O)c[nH]c2cc1Cl` [Example 36, 6-chloro-5-(2-methoxy-6-(7-oxa-2-azaspiro[3.5]nonan-2-yl)pyridin-3-yl)-1H-indole-3-carboxylic acid], for which, at AMPKα1β1γ1, the EC50 lay in the range of 100 to 250 nM.

Consider `COc1nc(N2CCC3(CCOCC3)C2)ccc1-c1cc2c(C(=O)O)c[nH]c2cc1Cl` [Example 35, 6-chloro-5-(2-methoxy-6-[8-oxa-2-azaspiro[4.5]decan-2-yl]pyridin-3-yl)-1H-indole-3-carboxylic acid], for which, at AMPKα1β1γ1, the EC50 lay within 100 to 250 nM.

As for `COc1nc(N2CCC3(CCO3)CC2)ccc1-c1cc2c(C(=O)O)c[nH]c2cc1Cl` (racemic) [Example 31, racemic-6-chloro-5-(2-methoxy-6-(1-oxa-7-azaspiro [3.5]nonan-7-yl)pyridin-3-yl)-1H-indole-3-carboxylic acid], on AMPKα1β1γ1, the EC50 lay within 50 to 100 nM.

Source of the values: patent US20220339144A1, “PYRIDINYL INDOLE COMPOUNDS AND METHODS OF USE THEREOF” (Chinook Therapeutics Canada, Inc., priority 2021, published 2022).
